Test results: US11286248B2, “Pyrazine-2(1H)-ketone compound acting as FGFR inhibitor” (ZHANGZHOU PIEN TZE HUANG PHARMACEUTICAL CO., LTD., priority 2018, dated 2022)
Structures can show the parent of a compound that is named as a salt.

Key:
Format in all cases: biochemical
human FGFR1 = biological target: T1, human FGFR1 (Homo sapiens, UniProt P11362); assay: 33P isotope-labeled kinase activity test (Reaction Biology Corp), wild-type FGFR1; conditions: 33P-ATP 5 μM, substrate pEY + Mn, 120 minutes at room temperature
T1 construct: purchased Invitrogen PV3146
T1 sequence (P11362 22-822): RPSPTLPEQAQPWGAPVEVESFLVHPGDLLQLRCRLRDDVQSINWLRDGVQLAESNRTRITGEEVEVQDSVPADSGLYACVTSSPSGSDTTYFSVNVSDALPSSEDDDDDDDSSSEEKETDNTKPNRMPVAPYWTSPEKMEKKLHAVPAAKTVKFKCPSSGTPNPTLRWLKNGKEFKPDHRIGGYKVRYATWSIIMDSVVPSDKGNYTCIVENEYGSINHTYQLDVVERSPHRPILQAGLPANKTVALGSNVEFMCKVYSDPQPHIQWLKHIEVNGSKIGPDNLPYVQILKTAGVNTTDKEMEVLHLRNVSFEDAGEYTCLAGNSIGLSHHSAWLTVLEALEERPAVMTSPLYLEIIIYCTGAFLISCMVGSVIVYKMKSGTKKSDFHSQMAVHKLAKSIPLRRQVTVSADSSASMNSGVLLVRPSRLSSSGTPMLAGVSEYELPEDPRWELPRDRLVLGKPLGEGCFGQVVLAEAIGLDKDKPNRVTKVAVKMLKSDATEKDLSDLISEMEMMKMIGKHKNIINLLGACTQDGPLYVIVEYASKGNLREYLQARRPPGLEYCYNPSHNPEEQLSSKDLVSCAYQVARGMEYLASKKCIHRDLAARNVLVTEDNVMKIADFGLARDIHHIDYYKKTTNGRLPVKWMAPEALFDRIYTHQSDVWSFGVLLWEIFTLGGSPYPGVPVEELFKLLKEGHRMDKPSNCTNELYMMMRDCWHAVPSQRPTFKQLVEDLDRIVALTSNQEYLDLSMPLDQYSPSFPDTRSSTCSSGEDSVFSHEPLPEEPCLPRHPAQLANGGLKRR
Procedure: (§1) The IC50 value is determined using ^33P isotope-labeled kinase activity test (Reaction Biology Corp) to evaluate the inhibitory ability of the compounds to be tested on human FGFR1 and FGFR4.
(§2) Buffer conditions: 20 mM 4-(2-hydroxyethyl)-1-piperazineethanesulfonic acid (Hepes) (pH 7.5), 10 mM MgCl2, 1 mM ethylene glycol-bis-(2-aminoethyl ether)tetraacetic acid (EGTA), 0.02% polyoxyethylene lauryl ether (Brij35), 0.02 mg/ml bovine serum albumin (BSA), 0.1 mM sodium vanadate (Na3VO4), 2 mM dithiothreitol (DTT), and 1% DMSO.
Test steps: At room temperature, the compounds to be tested are dissolved in DMSO to prepare a 10 mM solution for use. The substrate is dissolved in the newly prepared buffer, and the kinase to be tested is added and mixed well. The DMSO solution in which the compounds to be tested are dissolved is added to the above-mentioned homogeneous reaction solution using acoustic technology (Echo 550). […] After incubating for 15 minutes, ^33P-ATP (activity: 0.01 μCi/μl, with corresponding concentration being listed in table 1) is added to start the reaction. The supplier article number, batch number, and the concentration information in the reaction solution of FGFR1, FGFR4 and substrates thereof are listed in table 1. […] The kinase activity data is expressed by comparing the kinase activity of the groups containing the compounds to be tested with that of the blank group (containing only DMSO). The IC50 value is obtained by curve fitting using Prism4 software (GraphPad), and the experimental results are shown in table 2.

FGFR2 = biological target: T2, FGFR2 (Homo sapiens, UniProt P21802); assay: 33P isotope-labeled kinase activity test (Reaction Biology Corp), wild-type FGFR2; conditions: for Selectivity FGFR1/2: ratio of IC50 FGFR1 to IC50 FGFR2; for IC50: wild-type kinase, 33P-ATP 5 μM, substrate pEY + Mn, 120 minutes at room temperature
T2 construct: purchased Invitrogen PV3368
T2 sequence (P21802 22-821): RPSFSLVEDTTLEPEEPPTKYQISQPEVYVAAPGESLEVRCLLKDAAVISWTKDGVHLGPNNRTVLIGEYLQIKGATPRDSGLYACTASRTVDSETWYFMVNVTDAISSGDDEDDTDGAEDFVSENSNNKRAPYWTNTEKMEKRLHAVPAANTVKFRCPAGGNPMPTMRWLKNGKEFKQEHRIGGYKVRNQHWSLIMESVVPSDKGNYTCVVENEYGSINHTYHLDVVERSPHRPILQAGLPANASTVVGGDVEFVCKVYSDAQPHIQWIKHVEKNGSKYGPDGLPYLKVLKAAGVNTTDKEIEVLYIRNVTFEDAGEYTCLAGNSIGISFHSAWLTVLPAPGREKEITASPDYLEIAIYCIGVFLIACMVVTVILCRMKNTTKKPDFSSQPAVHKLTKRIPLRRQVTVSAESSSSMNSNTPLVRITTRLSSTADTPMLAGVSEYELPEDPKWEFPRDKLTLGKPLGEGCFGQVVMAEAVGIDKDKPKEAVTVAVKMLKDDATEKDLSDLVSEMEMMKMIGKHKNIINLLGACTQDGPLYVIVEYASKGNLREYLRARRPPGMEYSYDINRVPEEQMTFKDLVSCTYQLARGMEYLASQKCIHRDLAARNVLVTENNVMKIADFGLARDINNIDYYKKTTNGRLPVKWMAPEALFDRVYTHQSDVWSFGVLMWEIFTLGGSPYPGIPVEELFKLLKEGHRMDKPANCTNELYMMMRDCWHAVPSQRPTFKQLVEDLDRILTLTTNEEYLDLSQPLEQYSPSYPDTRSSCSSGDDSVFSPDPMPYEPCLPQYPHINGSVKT

FGFR3 = biological target: T3, FGFR3 (Homo sapiens, UniProt P22607); assay: 33P isotope-labeled kinase activity test (Reaction Biology Corp), wild-type FGFR3; conditions: for Selectivity FGFR1/3: ratio of IC50 FGFR1 to IC50 FGFR3; for IC50: wild-type kinase, 33P-ATP 30 μM, substrate pEY + Mn, 120 minutes at room temperature
T3 construct: purchased Invitrogen PV3145
T3 sequence (P22607 23-806): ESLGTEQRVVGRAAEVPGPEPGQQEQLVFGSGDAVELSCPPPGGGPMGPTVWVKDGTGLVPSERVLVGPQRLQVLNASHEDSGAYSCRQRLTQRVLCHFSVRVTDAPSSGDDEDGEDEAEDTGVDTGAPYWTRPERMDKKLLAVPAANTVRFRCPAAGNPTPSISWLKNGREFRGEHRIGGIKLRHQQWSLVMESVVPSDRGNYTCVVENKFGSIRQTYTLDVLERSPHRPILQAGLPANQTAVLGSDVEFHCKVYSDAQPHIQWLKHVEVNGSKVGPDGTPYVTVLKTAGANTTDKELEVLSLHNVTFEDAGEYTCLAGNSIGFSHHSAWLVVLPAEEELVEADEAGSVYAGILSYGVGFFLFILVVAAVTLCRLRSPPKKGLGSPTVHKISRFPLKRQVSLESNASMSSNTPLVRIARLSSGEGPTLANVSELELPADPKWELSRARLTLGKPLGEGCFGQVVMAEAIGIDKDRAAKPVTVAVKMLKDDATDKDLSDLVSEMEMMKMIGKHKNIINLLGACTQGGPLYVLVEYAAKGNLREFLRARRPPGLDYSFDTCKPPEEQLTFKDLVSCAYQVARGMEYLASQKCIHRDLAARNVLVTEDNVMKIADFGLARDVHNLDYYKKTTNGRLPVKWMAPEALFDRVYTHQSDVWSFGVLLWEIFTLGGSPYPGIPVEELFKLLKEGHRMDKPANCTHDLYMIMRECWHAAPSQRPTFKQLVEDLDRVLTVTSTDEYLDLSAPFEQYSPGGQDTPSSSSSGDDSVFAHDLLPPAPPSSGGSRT

human FGFR4 = biological target: T4, human FGFR4 (Homo sapiens, UniProt P22455); assay: 33P isotope-labeled kinase activity test (Reaction Biology Corp), wild-type FGFR4; conditions: 33P-ATP 2.5 μM, substrate pEY + Mn, 120 minutes at room temperature
T4 construct: purchased Invitrogen P3054
T4 sequence (P22455 22-802): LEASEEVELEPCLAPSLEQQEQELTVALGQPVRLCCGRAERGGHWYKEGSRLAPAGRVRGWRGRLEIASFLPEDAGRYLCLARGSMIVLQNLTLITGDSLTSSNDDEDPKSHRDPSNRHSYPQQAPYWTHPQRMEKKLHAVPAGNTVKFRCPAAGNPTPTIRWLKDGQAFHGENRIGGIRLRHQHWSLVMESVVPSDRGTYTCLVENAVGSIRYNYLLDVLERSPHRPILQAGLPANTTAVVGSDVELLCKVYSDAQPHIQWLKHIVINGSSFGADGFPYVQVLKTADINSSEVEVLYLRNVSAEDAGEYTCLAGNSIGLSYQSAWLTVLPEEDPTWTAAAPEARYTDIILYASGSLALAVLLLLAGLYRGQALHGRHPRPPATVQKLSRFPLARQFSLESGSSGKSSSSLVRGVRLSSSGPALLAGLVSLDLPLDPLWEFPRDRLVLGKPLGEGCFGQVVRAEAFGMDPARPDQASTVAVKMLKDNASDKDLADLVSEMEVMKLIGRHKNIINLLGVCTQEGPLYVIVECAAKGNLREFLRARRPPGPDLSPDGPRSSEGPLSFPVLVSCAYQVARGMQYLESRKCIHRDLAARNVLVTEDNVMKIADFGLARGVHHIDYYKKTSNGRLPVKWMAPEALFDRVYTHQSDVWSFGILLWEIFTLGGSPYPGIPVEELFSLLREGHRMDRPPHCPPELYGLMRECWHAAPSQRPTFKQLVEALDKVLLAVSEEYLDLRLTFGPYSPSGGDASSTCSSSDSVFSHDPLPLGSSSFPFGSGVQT
Procedure: as §1, §2
Test steps: At room temperature, the compounds to be tested are dissolved in DMSO to prepare a 10 mM solution for use. The substrate is dissolved in the newly prepared buffer, and the kinase to be tested is added and mixed well. The DMSO solution in which the compounds to be tested are dissolved is added to the above-mentioned homogeneous reaction solution using acoustic technology (Echo 550). […] After incubating for 15 minutes, ^33P-ATP (activity: 0.01 μCi/μl, with corresponding concentration being listed in table 1) is added to start the reaction. The supplier article number, batch number, and the concentration information in the reaction solution of FGFR1, FGFR4 and substrates thereof are listed in table 1. After the reaction is carried out at room temperature for 120 minutes, the reaction solution is spotted on P81 ion exchange filter paper (Whatman #3698-915). After the filter paper is repeatedly washed with 0.75% phosphoric acid solution, the radioactivity of the phosphorylated substrate remaining on the filter paper is measured. The kinase activity data is expressed by comparing the kinase activity of the groups containing the compounds to be tested with that of the blank group (containing only DMSO). The IC50 value is obtained by curve fitting using Prism4 software (GraphPad), and the experimental results are shown in table 2.

IC50 (human FGFR1) | Selectivity FGFR1/2 (FGFR2) | IC50 (FGFR2) | Selectivity FGFR1/3 (FGFR3) | IC50 (FGFR3) | IC50 (human FGFR4) | Structure (SMILES)
61.6 nM | 5.47 | 11.2 nM | 8.40 | 7.33 nM |  | COc1cc(OC)cc(-c2nc(-c3nc(-c4cn(CC(O)CC(F)(F)F)nc4C)cnc3N)cn(C)c2=O)c1 (single isomer, unassigned) [compound 0062]
70.8 nM | 4.39 | 16.1 nM | 5.78 | 12.3 nM |  | COc1cc(OC)cc(-c2nc(-c3nc(-c4cn(CC(O)CC(F)(F)F)nc4C)cnc3N)cn(C)c2=O)c1 (single isomer, unassigned) [compound 0063]
181 nM | 7.97 | 22.7 nM | 11.18 | 16.2 nM |  | COc1cc(OC)cc(-c2nc(-c3nc(-c4cnn(CC(O)CC(F)(F)F)c4C)cnc3N)cn(C)c2=O)c1 (single isomer, unassigned) [compound 0064]
407 nM | 7.56 | 53.9 nM | 9.01 | 45.2 nM |  | COc1cc(OC)cc(-c2nc(-c3nc(-c4cnn(CC(O)CC(F)(F)F)c4C)cnc3N)cn(C)c2=O)c1 (single isomer, unassigned) [compound 0065]
164 nM | 5.11 | 32.1 nM | 5.52 | 29.8 nM |  | COc1cc(OC)cc(-c2nc(-c3nc(-c4cn(C)nc4C)cnc3N)cn(C)c2=O)c1 [Hydrochloride salt of 0023]
2280 nM | 7.27 | 314 nM | 19.15 | 119 nM |  | COc1cc(OC)cc(-c2nc(-c3nc(-c4cnc5c(c4)CC(=O)N5C)cnc3N)cn(C)c2=O)c1 [Hydrochloride salt of 0033]
13.2 nM | 5.31 | 2.48 nM | 7.28 | 1.81 nM | > 10000 nM | COc1cc(OC)cc(-c2nc(-c3nc(-c4ccc(C5CCN(C)CC5)nc4)cnc3N)cn(C)c2=O)c1 [Hydrochloride salt of 0036]
29.2 nM | 6.94 | 4.21 nM | 5.92 | 4.93 nM | 8640 nM | COc1cc(OC)cc(-c2nc(-c3nc(-c4cn(C5CCN(C)CC5)nc4C)cnc3N)cn(C)c2=O)c1 [Trifluoroacetate salt of 0016]
727 nM | 48.27 | 15.1 nM | 89.67 | 8.11 nM |  | COc1cc(OC)cc(-c2nc(-c3nc(-c4cccnc4)cnc3N)cn(C)c2=O)c1 [Trifluoroacetate salt of 0018]
2.33 nM | 4.14 | 0.56 nM | 1.52 | 1.54 nM |  | COc1cc(OC)c(F)c(-c2nc(-c3nc(-c4cn(C)nc4C)cnc3N)cn(C)c2=O)c1 [Trifluoroacetate salt of 0029]
183 nM | 4.15 | 44 nM | 6.57 | 27.8 nM |  | COc1cc(OC)cc(-c2nc(-c3nc(-c4cnn(C5CCN(C)CC5)c4C)cnc3N)cn(C)c2=O)c1 [Trifluoroacetate salt of 0031]
3.08 nM | 5.78 | 0.533 nM | 3.26 | 0.944 nM |  | COc1cc(OC)c(Cl)c(-c2nc(-c3nc(-c4ccc(C5CCN(C)CC5)nc4)cnc3N)cn(C)c2=O)c1 [Trifluoroacetate salt of 0060]
78.7 nM | 8.95 | 8.79 nM | 12.48 | 6.31 nM |  | COc1cc(OC)cc(-c2nc(-c3nc(-c4cnn(C)c4)cnc3N)cn(C)c2=O)c1 [compound 0017]
54 nM | 7.05 | 7.66 nM | 5.12 | 10.5 nM |  | COc1cc(OC)cc(-c2nc(-c3nc(-c4cn(C5CCNCC5)nc4C)cnc3N)cn(C)c2=O)c1 [compound 0028]
29.3 nM | 5.02 | 5.83 nM | 5.81 | 5.04 nM |  | COCCN1CCC(n2cc(-c3cnc(N)c(-c4cn(C)c(=O)c(-c5cc(OC)cc(OC)c5)n4)n3)c(C)n2)CC1 [compound 0035]
> 10000 nM | >68.4 | 146 nM | >978.5 | 10.2 nM |  | CCNC(=O)c1ccc(-c2cnc(N)c(-c3cn(C)c(=O)c(-c4cc(OC)cc(OC)c4)n3)n2)cn1 [compound 0038]
53 nM | 4.17 | 12.7 nM | 6.63 | 7.99 nM |  | COc1cc(OC)cc(-c2nc(-c3nc(-c4cn(CC5(C#N)CC5)nc4C)cnc3N)cn(C)c2=O)c1 [compound 0043]
269 nM | 4.79 | 56.1 nM | 4.65 | 57.8 nM |  | COc1cc(OC)cc(-c2nc(-c3nc(-c4cn(CCO)nc4C)cnc3N)cn(C)c2=O)c1 [compound 0048]
201 nM | 3.07 | 65.5 nM | 5.85 | 34.3 nM |  | COc1cc(OC)cc(-c2nc(-c3nc(-c4cnn(CCO)c4C)cnc3N)cn(C)c2=O)c1 [compound 0049]
29.3 nM | 4.48 | 6.54 nM | 7.12 | 4.11 nM |  | COc1cc(OC)cc(-c2nc(-c3nc(-c4cnn(CC5(C#N)CC5)c4C)cnc3N)cn(C)c2=O)c1 [compound 0051]
126 nM | 10.62 | 11.9 nM | 11.76 | 10.8 nM |  | COc1cc(OC)cc(-c2nc(-c3nc(-c4cncc(C)c4)cnc3N)cn(C)c2=O)c1 [compound 0056]
> 10000 nM |  | 3060 nM |  | 49.4 nM |  | COc1cc(OC)cc(-c2nc(-c3nc(-c4ccc(C5(C#N)CCC5)nc4)cnc3N)cn(C)c2=O)c1 [compound 0059]
